From patent US20240148679A1, “METHODS AND COMPOSITIONS RELATED TO TREATMENT AND PREVENTION OF CANCER BY INHIBITION OF DGAT1 AND DGAT2” (Ohio State Innovation Foundation, priority 2019, published 2024)

Key:
liver cancer cells = assay: Liver cancer cell death with DGAT1 and DGAT2 inhibitors alone or in combination; assay type: cell-based, human
Procedure: MHCC97L 6×10^4 12 well plate, treated at 24 hours with 1% FBS DMEM with DGAT1 and DGAT2 inhibitors. Picture taken on day 4.
HEPG2 6×10^4 12 well plate, treated at 24 hours with 1% FBS DMEM with DGAT1 and DGAT2 inhibitors. Picture taken on day 4.
HeG2 8×10^4 12 well plate, treated at 24 hours with 1% FBS DMEM with DGAT1 and DGAT2 inhibitors. Picture taken on day 4.
Huh7 4×10^4 12-well plate, treated at 24 hours with 1% FBS DMEM with DGAT1 and DGAT2 inhibitors. Picture taken on day 4.
Hep3B 6×10^4 12-well plate, treated at 24 hours with 1% FBS DMEM with DGAT1 and DGAT2 inhibitors. Picture taken on day 4.
Huh7 6×10^4 12-well plate, treated at 24 hours with 1% FBS DMEM with DGAT1 and DGAT2 inhibitors. Picture taken on day 4.

GBM cells = assay: Lipid droplet (BODIPY 493/503) number and TG (TLC) levels in GBM cells; assay type: cell-based, human; conditions: 24 hours; for LDs/TG levels: concurrently inhibiting DGAT1 and DGAT2 (A-922500 + PF-06424439), vs DGAT1 inhibition alone; for number of LDs and levels of TG: single inhibitor, 20 μg/ml, all examined GBM cells
Procedure: (A) RT-qPCR analysis of DGAT1 vs. DGAT2 mRNA expression in GBM cells (U251 and GBM30) and in liver cancer cell line (HepG2). The results are shown as mean±SD (n=3). Statistical significance was determined by a paired Student's t-test. *P<0.01; n.s., not significant. (B) Representative fluorescence imaging of LDs stained with BODIPY 493/503 (green) (upper panels) and TLC analysis of TG levels (lower panels) in GBM and liver cancer cells after treatments with the DGAT1 inhibitor A-922500 (20 μg/ml) or DGAT2 inhibitor PF-06424439 ([…]) alone or in combination for 24 hr. Nuclei were stained with Hoechst 33342 (blue). Scale bar, 10 m. LDs were quantified by the ImageJ software in more than 30 cells in each treatment group (mean±SEM). TG levels were quantified by the ImageJ software and normalized to the untreated control group (mean±SD, n=3). Statistical significance was determined by one-way ANOVA. * P<0.001; #P<0.05. (C) Percentage of dead GBM or liver cancer cells after treatment with DGAT1 or DGAT2 inhibitors alone or in combination for 3 days as in panel B. Live and dead cells were counted after trypan blue staining (mean SD, n=3). Statistical significance was determined by one-way ANOVA. * P<0.0001. (D) Western blot analysis of DGAT1 expression in membrane extracts from GBM and liver cancer cells after infection with shRNA-expressing lentivirus against DGAT1 for 48 hr. […] Statistical significance was determined by one-way ANOVA. * P<0.01. (F) Representative fluorescence images of LDs stained with BODIPY 493/503 (upper panels) and TLC analysis of TG levels (lower panels) in GBM and liver cancer cells after lentivirus-mediated shRNA knockdown of DGAT1 or DGAT2 alone or in combination for 48 hr. […] Quantification and significance analysis of LDs and TG levels in different groups were the same as in panel B. * P<0.001; #P<0.05. […] Cell death percentage and significance were determined as in panel c (mean±SD, n=3). *P<0.0001; #P<0.001.
(A) RT-qPCR analysis of DGAT1 vs. DGAT2 mRNA levels in different types of cancer cell lines using 3 pairs of different primers. […] Statistical significance was determined by Student's t-test. *P<0.01. (B) Representative fluorescence imaging of LDs stained with BODIPY 493/503 (green) (upper panels) and TLC analysis of TG levels (lower panels) in GBM cells after treatment with the DGAT1 inhibitor A-922500 (20 μg/ml) or DGAT2 inhibitor PF-06424439 (20 μg/ml) for 24 hr. […] LDs were quantified by the ImageJ software in more than 30 cells in each treatment group (mean±SEM). TG levels were quantified by the ImageJ software and normalized to control group (mean±SD, n=3). Statistical significance was determined by one-way ANOVA. *P<0.001; #P<0.05. […] Statistical significance was determined by one-way ANOVA. *P<0.001. […]

[1] = DGAT1 inhibitor in combination with DGAT2 inhibitor

O=C(Nc1ccccc1)Nc1ccc(-c2ccc(C(=O)[C@@H]3CCC[C@H]3C(=O)O)cc2)cc1 [A-922500]
liver cancer cell death (liver cancer cells; [1]): effective to kill liver cancer cells | liver cancer cell death (liver cancer cells; each single inhibitor): no ability to induce liver cancer cell death | LDs/TG levels (GBM cells): did not result in further reduction | number of LDs and levels of TG (GBM cells): dramatically reduced the number of LDs

CS(=O)(=O)O.O=C([C@@H]1CCCN(c2ccc3[nH]c(C4(n5cc(Cl)cn5)CC4)nc3n2)C1)N1CCCC1 [PF-06424439]
liver cancer cell death (liver cancer cells; [1]): effective to kill liver cancer cells | liver cancer cell death (liver cancer cells; each single inhibitor): no ability to induce liver cancer cell death | LDs/TG levels (GBM cells): did not result in further reduction | number of LDs and levels of TG (GBM cells): minor reduction
